Test results taken from US8598374B2, “GPR120 receptor agonists and uses thereof” (Metabolex, Inc, priority 2008, dated 2013).

target: T1, human GPR120 (Homo sapiens, UniProt Q5NUL3); test: Intracellular Ca2+ assay (FLIPR Calcium 4, Flexstation) in human GPR120 stable cell line; assay type: cell-based; conditions: % activity at 2.5 μM compared to the maximal activity of the compound of Example 25 at 2.5 μM; HEK293 cells co-expressing Gqi5
T1 construct: Flag (DYKDDDDK) (N); host or cells: HEK293 cells co-expressing Gqi5
T1 sequence (Q5NUL3 1-361): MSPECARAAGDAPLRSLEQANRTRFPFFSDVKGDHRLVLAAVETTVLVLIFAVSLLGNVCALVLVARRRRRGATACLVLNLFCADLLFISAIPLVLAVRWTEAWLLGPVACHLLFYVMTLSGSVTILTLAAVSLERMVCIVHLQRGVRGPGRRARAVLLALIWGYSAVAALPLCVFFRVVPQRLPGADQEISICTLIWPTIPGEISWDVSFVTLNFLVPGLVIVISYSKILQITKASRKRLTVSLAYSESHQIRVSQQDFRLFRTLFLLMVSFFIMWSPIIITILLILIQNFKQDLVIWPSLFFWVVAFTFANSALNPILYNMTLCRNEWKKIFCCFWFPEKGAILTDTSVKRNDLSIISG
How it was run: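 HEK293 cells co-expressing Gqi5 and stably expressing Flag-tagged human GPR120 were seeded at 70,000 cells per well in poly-D-lysine coated 96 well plates and loaded with FLIPR Calcium 4 dye for 50 minutes at 37° C. On a Flexstation, compound-induced fluorescence (excitation 485 nm, emission 525) was recorded for 90 seconds. Percent activity was expressed against a reference agonist's maximal activity at 2.5 μM, set as 100%.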

Row | Compound | % Activity (Ex. 25 Reference Compound) [%]
1 | CN(C)Cc1cc(OCc2cc(F)cc3c2OC(C)(C)C3)ccc1CCC(=O)O [Example 122, 3-(2-((dimethylamino)methyl)-4-((5-fluoro-2,2-dimethyl-2,3-dihydrobenzofuran-7-yl)methoxy)phenyl)propanoic acid] | 3.58
2 | CC(=O)Nc1cc(COc2ccc(CC(C)C(=O)O)cc2)c2c(c1)CC(C)(C)O2 (stereo not drawn) [Example 123, 3-(4-((5-acetamido-2,2-dimethyl-2,3-dihydrobenzofuran-7-yl)methoxy)phenyl)-2-methylpropanoic acid] | 47.01
3 | CC(Cc1ccc(OCc2cc(OC(F)(F)F)cc3c2OC(C)(C)C3)cc1)C(=O)O (stereo not drawn) [Example 124, 3-(4-((2,2-dimethyl-5-(trifluoromethoxy)-2,3-dihydrobenzofuran-7-yl)methoxy)phenyl)-2-methylpropanoic acid] | 131.64
4 | Cc1cc2c(OCc3cc(F)cc4c3OC(C)(C)C4)ccc(CCC(=O)O)c2o1 [Example 125, 3-(4-((5-fluoro-2,2-dimethyl-2,3-dihydrobenzofuran-7-yl)methoxy)-2-methylbenzofuran-7-yl)propanoic acid] | 32.57
5 | CC(=O)NCCOC(=O)C(C)Cc1ccc(OCc2cc(Cl)cc3c2OC(C)(C)C3)c(C(F)(F)F)c1 (stereo not drawn) [Example 126, 2-acetamidoethyl 3-(4-((5-chloro-2,2-dimethyl-2,3-dihydrobenzofuran-7-yl)methoxy)-3-(trifluoromethyl)phenyl)-2-methylpropanoate] | 47.02
6 | CC1(C)Cc2cc(Cl)cc(CNc3ccc(CCC(=O)O)cc3)c2O1 [Example 127] | 152.93
7 | CC(Cc1ccc(OCc2cc(Cl)cc3c2OC(C)(C)C3O)cc1)C(=O)O (stereo not drawn) [Example 130, 3-(4-((5-chloro-3-hydroxy-2,2-dimethyl-2,3-dihydrobenzofuran-7-yl)methoxy)phenyl)-2-methylpropanoic acid] | 103.85
8 | CC1(C)Cc2cc(F)cc(COc3ccc(CC(=O)O)cc3)c2O1 [Example 133, 2-(4-((5-fluoro-2,2-dimethyl-2,3-dihydrobenzofuran-7-yl)methoxy)phenyl)acetic acid] | 103.4
9 | CCc1cc(OCc2cc(F)cc3c2OC(C)(C)C3)ccc1CCC(=O)O [Example 134, 3-(2-ethyl-4-((5-fluoro-2,2-dimethyl-2,3-dihydrobenzofuran-7-yl)methoxy)phenyl)propanoic acid] | 151.44
10 | CC1(C)Cc2cc(F)cc(COc3ccc(CCC(=O)O)c(OC(F)(F)F)c3)c2O1 [Example 136, 3-(4-((5-fluoro-2,2-dimethyl-2,3-dihydrobenzofuran-7-yl)methoxy)-2-(trifluoromethoxy)phenyl)propanoic acid] | 140.51
11 | CCc1cc(OCc2cccc3c2CC(C)(C)O3)ccc1CCC(=O)O [Example 140, 3-(4-((2,2-dimethyl-2,3-dihydrobenzofuran-4-yl)methoxy)-2-ethylphenyl)propanoic acid] | 146.18
12 | C[C@H](Cc1ccc(OCc2cc(Cl)cc3c2OC(C)(C)C3)c(F)c1)C(=O)O [Example 141, (R)-3-(4-((5-chloro-2,2-dimethyl-2,3-dihydrobenzofuran-7-yl)methoxy)-3-fluorophenyl)-2-methylpropanoic acid] | 143.3
13 | C[C@H](Cc1ccc(OCc2cc(Cl)cc3c2OC(C)(C)C3)c(C(F)(F)F)c1)C(=O)O [Example 143, (R)-3-(4-((5-chloro-2,2-dimethyl-2,3-dihydrobenzofuran-7-yl)methoxy)-3-(trifluoromethyl)phenyl)-2-methylpropanoic acid] | 90.56
14 | [2H]C1([2H])c2cc(F)cc(COc3ccc(CC(C)C(=O)O)cc3)c2OC1(C)C (stereo not drawn) [Example 145, 3-(4-((3,3-dideuterio-5-fluoro-2,2-dimethyl-2,3-dihydrobenzofuran-7-yl)methoxy)phenyl)-2-methylpropanoic acid] | 143.69
15 | [2H]C1([2H])c2cc(Cl)cc(COc3ccc(CC(C)C(=O)O)cc3F)c2OC1(C)C (stereo not drawn) [Example 146, 3-(4-((3,3-dideuterio-5-chloro-2,2-dimethyl-2,3-dihydrobenzofuran-7-yl)methoxy)-3-fluorophenyl)-2-methylpropanoic acid] | 140.72
16 | [2H]C1([2H])c2cc(Cl)cc(COc3ccc(CC(C)C(=O)O)cc3C(F)(F)F)c2OC1(C)C (stereo not drawn) [Example 147, 3-(4-((3,3-dideuterio-5-chloro-2,2-dimethyl-2,3-dihydrobenzofuran-7-yl)methoxy)-3-(trifluoromethyl)phenyl)-2-methylpropanoic acid] | 138.65
17 | CC(Cc1ccc(OCc2cc(Cl)cc3c2OCC3(C)C)cc1)C(=O)O (stereo not drawn) [Example 148, 3-(4-((5-chloro-3,3-dimethyl-2,3-dihydrobenzofuran-7-yl)methoxy)phenyl)-2-methylpropanoic acid] | 113.89
18 | Cc1cc2cccc(COc3c(F)cc(CC(C)C(=O)O)cc3F)c2s1 (stereo not drawn) [Example 151, 3-(3,5-difluoro-4-((2-methylbenzo[b]thiophen-7-yl)methoxy)phenyl)-2-methylpropanoic acid] | 117.38
19 | Cc1cc2cccc(COc3ccc4c(c3)CCC4CC(=O)O)c2s1 (stereo not drawn) [Example 152, 2-(5-((2-methylbenzo[α]thiophen-7-yl)methoxy)-2,3-dihydro-1H-inden-1-yl)acetic acid] | 83.81
20 | CC1(C)Cc2cc(F)cc(COc3ccc4c(c3)CCCC4CC(=O)O)c2O1 (stereo not drawn) [Example 153, 2-(6-((5-fluoro-2,2-dimethyl-2,3-dihydrobenzofuran-7-yl)methoxy)-1,2,3,4-tetrahydronaphthalen-1-yl)acetic acid] | 106.81
21 | CC1(C)Cc2cc(Cl)cc(COc3ccc(C(C)(C)CC(=O)O)cc3)c2O1 [Example 156, 3-(4-((5-chloro-2,2-dimethyl-2,3-dihydrobenzofuran-7-yl)methoxy)phenyl)-3-methylbutanoic acid] | 148.87
22 | CC(Cc1ccc(OCc2cc(Cl)cc3c2OC2(CCCC2)C3)cc1)C(=O)O (stereo not drawn) [Example 159, 3-(4-((5-chloro-3H-spiro[benzofuran-2,1′-cyclopentane]-7-yl)methoxy)phenyl)-2-methylpropanoic acid] | 164.79
23 | CC1(C)Cc2cc(F)cc(COc3ccc(CCCC(=O)O)cc3)c2O1 [Example 160, 4-(4-((5-fluoro-2,2-dimethyl-2,3-dihydrobenzofuran-7-yl)methoxy)phenyl)butanoic acid] | 172.13
24 | CC(Cc1ccc(OCc2cc(F)cc3c2OC2(CCCC2)C3)cc1)C(=O)O (stereo not drawn) [Example 162, 3-(4-((5-fluoro-3H-spiro[benzofuran-2,1′-cyclopentane]-7-yl)methoxy)phenyl)-2-methylpropanoic acid] | 154.48
25 | O=C(O)C1CC1c1ccc(OCc2cc(F)cc3c2OC2(CCCC2)C3)cc1 (stereo not drawn) [Example 165, 2-(4-((5-fluoro-3H-spiro[benzofuran-2,1′-cyclopentane]-7-yl)methoxy)phenyl)cyclopropanecarboxylic acid] | 158.08

same assay, conditions: human GPR120 stably expressing cells, eight concentrations from 0.00001 to 20 μM

Row | Compound | EC50 [µM]
26 | Cc1cc2c(OCc3cc(F)cc4c3OC(C)(C)C4)ccc(CCC(=O)O)c2o1 [Example 125, 3-(4-((5-fluoro-2,2-dimethyl-2,3-dihydrobenzofuran-7-yl)methoxy)-2-methylbenzofuran-7-yl)propanoic acid] | 1 to 10
27 | CC(=O)NCCOC(=O)C(C)Cc1ccc(OCc2cc(Cl)cc3c2OC(C)(C)C3)c(C(F)(F)F)c1 (stereo not drawn) [Example 126, 2-acetamidoethyl 3-(4-((5-chloro-2,2-dimethyl-2,3-dihydrobenzofuran-7-yl)methoxy)-3-(trifluoromethyl)phenyl)-2-methylpropanoate] | 1 to 10
